# Type: in vivo
# Settings: dermal delivery via glass cup bulb, approximately 0.0007 g toluene, ~253 g rat, 10-L glass sampling chamber, quadrupole MS m/z=92, throughput 195 mL/min
# Method: FIG. 5a illustrates a system 200 for real-time monitoring and/or analysis of analytes released to a sampling environment 30 in conjunction with animal exposure studies, according to another embodiment of the invention. In Example 4 below, a live animal (e.g., rat) 32 placed in a sampling environment 30 is dosed or treated with a chemical or a drug delivered, e.g., via a dermal cup bulb 34 in conjunction with a precision syringe 36 or other delivery means, including but not limited to, dermal patch, injection, or the like. Environment 30 is monitored in real-time via coupling with manifold 20 at the breathing (clearance) rate of the animal until desired target analytes, metabolites, and/or chemical indicators of interest are detected or quantified in the mass-selective detector or instrument comprising system 10. […]
# A custom made ˜3-cc glass cup bulb 34 including a septum (not shown) made of silicon sealant (Dow Corning, Baltimore, Md.) was affixed to the dermis of an anesthetized ˜253 g rat 32 using a veterinary bonding compound (e.g., vet bond®, 3M, St. Paul, Minn.) and allowed to affix for ˜12 to 14 hours. […] Alternatively, breathing rate can be determined using a breathing plethysmograph (e.g., a double chamber plethysmograph, Buxco Electronics, Inc., Wilmington, N.C.). […]
structure (smiles),measurement,value
Cc1ccccc1 [toluene],Time from exposure to detection of the toluene analyte from the respired breath of animal,about 30 minutes

# From patent US7288760B2, “Conformational real-time atmospheric and environmental characterization sampling apparatus and method” (Battelle Memorial Institute, priority 2005, dated 2007)
